According to US20220380383A1, “NEUROPROTECTIVE PDI MODULATING SMALL MOLECULES AND METHODS OF USE THEREOF” (THE TRUSTEES OF COLUMBIA UNIVERSITY IN THE CITY OF NEW YORK, priority 2018, published 2022):

How the values were obtained:
PC12 mHTTQ103 cells = experiment: Trypan blue viability assay; assay type: cell-based, rat; settings: 3 μM, 24 hours
Experimental: (§1) In FIG. 14B, cells were stained with 5 μM CeIIROX Orange dye to assay cellular ROS production. Representative data from one of three flow cytometry replicates are shown. In FIG. 14C, an aliquot from each sample was used for assessing viability, using Trypan blue dye on ViCell. […] Data are plotted as mean±SD with n=3.
(§2) One goal was to further understand why modulating PDI activity can be neuroprotective in AD and HD models. Previously, we saw that LOC14 alters PDI's redox state from the reduced to the oxidized conformation (Kaplan et al. 2015). In vivo, there are oxidoreductase enzymes, such as ERO1, that regulate PDI's redox states and, as a byproduct of the redox reaction, pass electrons to oxygen as a final electron acceptor, generating H2O2. We hypothesized that LOC14 might function in place of oxidoreductases such as ERO1, oxidizing PDI without generating H2O2 and that this decrease in ROS production is what is causing the neuroprotection in cells and neurons. […] Cells were then stained with the fluorescent ROS-sensitive dye, CeIIROX Orange, and ROS assayed by flow cytometry. Induced mHTT-expressing cells had elevated levels of ROS compared to cells not expressing mHTT (uninduced cells) and these ROS were decreased in cells treated with LOC14 (FIG. 14B). […]

[1] = test system: ROS in PC12 mHTTQ103 cells; experiment: CellROX Orange flow cytometry ROS assay; assay type: cell-based, rat; settings: 3 μM, 24 hours, mHTT-induced cells
Experimental: as §1, §2

O=C(C1CC1)N1CCN(Cn2oc3ccccc3c2=O)CC1 [OxyLOC14]
protection from mHTT in trypan blue viability assay (PC12 mHTTQ103 cells): did not show any protection from mHTT
cellular ROS (CellROX Orange flow cytometry) [1]: did not decrease ROS
